Experimental data: PubChem BioAssay (NCI)
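Briefly, cells in 96-well plates were exposed to five compound concentrations for 48 h, and endpoints were estimated by linear interpolation. GI50 marks 50% less growth. TGI denotes the concentration required for complete inhibition of growth.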

Assays:
Assay in all cases: DTP human tumour cell line panel, 48 h
[1] = test system: IGROV1 ovarian
[2] = test system: HS 578T breast
[3] = test system: EKVX NSCLC
[4] = test system: HOP-92 NSCLC
[5] = test system: SW-620 colon
[6] = test system: TK-10 renal
[7] = test system: 786-0 renal
[8] = test system: COLO 205 colon
[9] = test system: CCRF-CEM leukemia
[10] = test system: HCT-116 colon
[11] = test system: UO-31 renal

SMILES	TGI [1]	TGI [2]	TGI [3]	TGI [4]	TGI [5]	TGI [6]	TGI [7]	TGI [8]	TGI [9]	TGI [10]	TGI [11]	GI50 [1]	GI50 [3]	GI50 [4]	GI50 [5]	GI50 [8]	GI50 [11]	GI50 [9]	GI50 [10]	GI50 [6]
Cc1nc2sc3cccc(Cl)c3n2c(=O)c1N=Nc1ccc(Cl)cc1	> 100 µM	> 100 µM	> 100 µM	> 100 µM	> 100 µM	> 100 µM	> 100 µM	> 100 µM	> 100 µM	> 100 µM										
CCN(CC)CCNc1ccc2ncn3c4ccc(O)cc4c(=O)c1c23	14.3 µM	21 µM	21.9 µM	12.8 µM	8.84 µM	20.1 µM	14.1 µM	14.7 µM	16.5 µM	13 µM	6.94 µM									
CCOC(=O)c1c2c(n(-c3ccc(C)cc3)c1C)-c1ccccc1C(=O)C2(C(=O)OCC)C(=O)OCC	> 87.7 µM	86.5 µM	> 88.2 µM	88.6 µM	> 100 µM	> 100 µM	> 100 µM	> 100 µM	> 100 µM	> 72.9 µM	> 100 µM									
O=C(CSCC(=O)N/N=C/c1cccc(O)c1)N/N=C/c1cccc(O)c1	> 100 µM	> 100 µM	> 100 µM	> 100 µM	> 100 µM	> 100 µM	> 100 µM	> 100 µM		> 100 µM	> 100 µM									
COC(=O)c1cc2c(cc1Cl)Sc1nnc(Nc3ccccc3)n1S2(=O)=O	2.68 µM	11.4 µM	19.9 µM	3.75 µM	11.1 µM	8.66 µM	16.4 µM	19.5 µM	6.13 µM	14.7 µM	7.56 µM									
O=S(=O)(/N=C(\NO)Nc1ccc(Cl)cc1)c1cc(C(F)(F)F)cc(C(F)(F)F)c1	31.6 µM	60.5 µM	30.6 µM	30.3 µM	> 100 µM	37.6 µM	33.4 µM	35.5 µM	> 100 µM	31.2 µM										
C=CCNC(=O)C(C)C1CCC2(C)C=CC(=O)C(C)=C2C1O (stereo not drawn)	> 100 µM		> 100 µM	> 100 µM	> 100 µM			> 100 µM	> 100 µM	> 100 µM	> 100 µM									
O=[N+]([O-])c1ccc(/C=N/Nc2nc3ccccc3[nH]2)o1	26.7 µM	> 100 µM	67.2 µM	39.1 µM	28.3 µM	50 µM	> 100 µM	23 µM	26.6 µM	36.7 µM	47.5 µM									
CN1C(=O)CC(=O)N1/C(=C/c1ccccc1)c1ccccc1	42.2 µM	88.1 µM	> 100 µM	> 100 µM	> 100 µM	91.9 µM		> 100 µM	54.3 µM	> 100 µM	32 µM									
O=C1c2cc(O)c(O)cc2O[C@H](c2ccc(O)c(O)c2)[C@H]1O	> 100 µM	> 100 µM	> 100 µM	> 100 µM	> 100 µM	> 100 µM	> 100 µM	> 100 µM	> 100 µM	> 100 µM	> 100 µM									
Oc1ccc(C(=C(Br)c2ccccc2)c2ccc(O)cc2)cc1	19.9 µM	22 µM	26.2 µM	22.5 µM	14.9 µM	31.8 µM			32.3 µM	15.9 µM	19.7 µM									
CC(SC(=S)N1CCOCC1)C(=O)Nc1nnc(-c2ccc(Cl)cc2)o1 (stereo not drawn)	> 100 µM	> 100 µM		> 100 µM	> 100 µM	> 100 µM	> 100 µM	> 100 µM		67.5 µM	> 100 µM									
C=C(C#N)C(=O)OCC(CC)CC.C=C(C#N)C(=O)OCC(CC)CC.CS(C)=O.CS(C)=O.Nc1c(N=Nc2ccc(-c3ccc(N=Nc4cc(S(=O)(=O)[O-])c5ccccc5c4N)cc3)cc2)cc(S(=O)(=O)[O-])c2ccccc12.[Pt+2]	> 100 µM		63.3 µM	45.4 µM	46.2 µM			45.6 µM	> 100 µM	> 100 µM	> 100 µM	29.4 µM	26 µM	19.6 µM	25 µM	22.3 µM	> 100 µM	30.7 µM	> 65.2 µM	
Cc1ccc(S(=O)(=O)OC2CC(C(C)(C)C)CCC2c2ccccc2)cc1 (stereo not drawn)	> 100 µM		> 100 µM	> 100 µM	> 100 µM	> 100 µM	> 100 µM	> 100 µM		> 100 µM	> 100 µM									
COc1ccc(OC)c2sc(N3C(=O)/C(=C/c4cccc(Oc5ccccc5)c4)N=C3c3ccccc3)nc12	> 100 µM	> 100 µM	> 100 µM	> 100 µM	> 100 µM	> 100 µM	> 100 µM	> 100 µM	> 100 µM	> 100 µM	> 100 µM									
COc1ccc2nc3c(c(N)c2c1)C1CCC3C1(C)C (stereo not drawn)	> 100 µM	> 100 µM	> 100 µM	57.3 µM	> 100 µM	> 100 µM	59.2 µM	36.2 µM	98.4 µM	> 100 µM	> 100 µM									
O=C1c2cc3c(cc2-c2c1c1ccc(Cl)cc1c(=O)n2C[C@H](O)CO)OCO3	> 100 µM		1.52 µM		1.02 µM	1.76 µM		10.1 µM	24.2 µM		0.19 µM	0.135 µM	0.153 µM		0.02 µM	0.0954 µM	0.0348 µM	< 0.01 µM		0.277 µM
Cc1ccc(S(=O)(=O)N(CC(O)COc2ccccc2)c2c(F)cccc2F)cc1 (stereo not drawn)		46.1 µM	95.7 µM	8.48 µM	67.7 µM	97.5 µM	42.1 µM	27.9 µM	95.8 µM		38.7 µM									
CSc1nncc(-c2cc3c(c(SC)n2)CCCC3)n1			> 100 µM		> 100 µM	> 100 µM	> 100 µM	> 100 µM	> 100 µM	> 100 µM	> 100 µM									
O=c1[nH]c2[nH]c(=S)[nH]c(=S)c2[nH]1	> 100 µM	> 100 µM	> 100 µM	> 100 µM	> 100 µM	> 100 µM	> 100 µM			> 100 µM	> 100 µM									
Cc1cccc2sc(NC(=O)NS(=O)(=O)n3cnc4ccccc43)nc12	51.1 µM	52.1 µM	> 100 µM	38.7 µM	> 100 µM	> 100 µM	> 100 µM	> 100 µM	> 100 µM	99.3 µM	61.5 µM									
O=C1C(Cl)N(c2ccccc2Cl)C1c1c[nH]c2ccccc12 (stereo not drawn)	> 100 µM		> 100 µM	> 100 µM	> 100 µM	> 100 µM		> 100 µM	> 100 µM	> 100 µM	> 100 µM									
